Several values for one entry are separate records, joined by “and”; a condition that tells them apart may be missing. Equal values may be shown once. Read-outs that look alike come from different tables or passages of the source.
Tests used:
human 17β-HSD2 = target: T1, human 17β-HSD2 (Homo sapiens, UniProt P37059); test: Inhibition of human 17β-HSD2 (conversion of [3H]-E2 to E1); type: biochemical; details: for inhibition at 1 µM: read-out: % inhibition h17β-HSD2 @ 1 μM; for IC50: read-out: IC50 [nM] h17β-HSD2
T1 construct: 17β-HSD2 was obtained from the microsomal fraction; from tissue; host or cells: human placenta, microsomal fraction
T1 sequence (P37059 1-387): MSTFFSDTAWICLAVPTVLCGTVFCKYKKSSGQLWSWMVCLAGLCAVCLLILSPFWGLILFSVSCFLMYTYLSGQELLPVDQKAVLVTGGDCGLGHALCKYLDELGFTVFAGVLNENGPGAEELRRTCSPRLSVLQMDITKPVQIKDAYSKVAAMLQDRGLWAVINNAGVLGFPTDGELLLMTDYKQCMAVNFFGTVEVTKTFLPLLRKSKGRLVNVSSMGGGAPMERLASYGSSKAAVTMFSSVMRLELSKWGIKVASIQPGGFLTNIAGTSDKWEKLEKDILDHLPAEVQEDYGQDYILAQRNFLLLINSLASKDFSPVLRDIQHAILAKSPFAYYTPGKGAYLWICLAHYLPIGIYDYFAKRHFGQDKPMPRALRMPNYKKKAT

mouse 17β-HSD1 = target: T2, mouse 17β-HSD1 (Mus musculus, UniProt P51656); test: Inhibition of mouse 17β-HSD1 (recombinant, HEK293 lysate); type: biochemical
T2 construct: made in house; host or cells: HEK293 cells, transient transfection; 1,000 g supernatant of the cell lysate
T2 sequence (P51656 1-344): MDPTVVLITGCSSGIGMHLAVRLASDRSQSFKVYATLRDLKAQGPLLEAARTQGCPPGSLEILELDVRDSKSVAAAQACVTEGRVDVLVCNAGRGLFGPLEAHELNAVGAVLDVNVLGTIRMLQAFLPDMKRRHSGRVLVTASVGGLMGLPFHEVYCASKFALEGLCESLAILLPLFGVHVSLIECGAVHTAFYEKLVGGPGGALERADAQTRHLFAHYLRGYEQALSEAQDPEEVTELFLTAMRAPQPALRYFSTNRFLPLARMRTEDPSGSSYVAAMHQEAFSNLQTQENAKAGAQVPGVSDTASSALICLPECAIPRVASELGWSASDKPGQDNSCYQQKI

mouse 17β-HSD2 = target: T3, mouse 17β-HSD2 (Mus musculus, UniProt P51658); test: Inhibition of mouse 17β-HSD2 (liver microsomal fraction); type: biochemical; details: for IC50: read-out: IC50 m17β-HSD2
T3 construct: The pellet fractions containing the microsomal 17β-HSD2 were used for the determination of E1 formation; from tissue; host or cells: mouse liver, microsomal fraction
T3 sequence (P51658 1-381): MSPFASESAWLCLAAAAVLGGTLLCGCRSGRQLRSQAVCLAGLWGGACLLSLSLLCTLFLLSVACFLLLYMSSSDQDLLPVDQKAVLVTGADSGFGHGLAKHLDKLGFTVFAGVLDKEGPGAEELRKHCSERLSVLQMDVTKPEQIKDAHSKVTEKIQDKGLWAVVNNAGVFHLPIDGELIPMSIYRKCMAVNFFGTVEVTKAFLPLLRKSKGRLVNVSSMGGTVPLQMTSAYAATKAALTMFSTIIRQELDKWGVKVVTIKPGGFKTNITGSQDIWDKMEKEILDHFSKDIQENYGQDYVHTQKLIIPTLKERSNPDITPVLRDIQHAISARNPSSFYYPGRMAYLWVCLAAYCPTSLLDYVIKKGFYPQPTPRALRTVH

rat 17β-HSD1 = target: T4, rat 17β-HSD1 (Rattus norvegicus, UniProt P51657); test: Inhibition of rat 17β-HSD1 (recombinant, HEK293 lysate); type: biochemical; details: for inhibition at […] / % Inhibition r17β-HSD1: Cmpd conc. 250 nM; for inhibition at 5 µM: Cmpd conc. 5000 nM
T4 construct: made in house; host or cells: HEK293 cells, transient transfection; 1,000 g supernatant of the cell lysate
T4 sequence (P51657 1-344): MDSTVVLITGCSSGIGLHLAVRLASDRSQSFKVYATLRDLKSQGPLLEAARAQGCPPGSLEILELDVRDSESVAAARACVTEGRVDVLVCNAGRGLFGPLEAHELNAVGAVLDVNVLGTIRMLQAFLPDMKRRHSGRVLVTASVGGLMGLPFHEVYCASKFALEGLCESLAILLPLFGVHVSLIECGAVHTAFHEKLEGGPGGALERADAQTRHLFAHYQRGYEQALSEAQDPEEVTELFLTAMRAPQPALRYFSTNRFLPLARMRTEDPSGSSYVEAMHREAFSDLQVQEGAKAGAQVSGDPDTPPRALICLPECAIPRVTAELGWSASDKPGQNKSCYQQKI

rat 17β-HSD2 = target: T5, rat 17β-HSD2 (Rattus norvegicus, UniProt Q62730); test: Inhibition of rat 17β-HSD2 (liver microsomal fraction); type: biochemical
T5 construct: The pellet fractions containing the microsomal 17β-HSD2 were used for the determination of E1 formation; from tissue; host or cells: rat liver, microsomal fraction
T5 sequence (Q62730 1-381): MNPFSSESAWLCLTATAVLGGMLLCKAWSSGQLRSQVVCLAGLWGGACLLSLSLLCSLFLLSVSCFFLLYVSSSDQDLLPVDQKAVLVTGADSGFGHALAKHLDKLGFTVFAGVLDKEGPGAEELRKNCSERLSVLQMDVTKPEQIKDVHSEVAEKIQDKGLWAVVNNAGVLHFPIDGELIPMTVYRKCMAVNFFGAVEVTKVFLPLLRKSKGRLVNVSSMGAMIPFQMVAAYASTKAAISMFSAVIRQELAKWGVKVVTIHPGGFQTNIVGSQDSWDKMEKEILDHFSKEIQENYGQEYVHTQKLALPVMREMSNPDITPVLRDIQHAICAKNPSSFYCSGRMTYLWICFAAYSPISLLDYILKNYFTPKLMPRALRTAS

human 17β-HSD1 = target: T6, human 17β-HSD1 (Homo sapiens, UniProt P14061); test: Inhibition of human 17β-HSD1 (conversion of [3H]-E1 to E2, HPLC radioflow detection); type: biochemical; details: for inhibition at 0.1 µM: read-out: % inhibition h17β-HSD1 @ 100 nM, compound 100 nM; for inhibition at 1 µM: read-out: % inhibition h17β-HSD1 @ 1 μM
T6 construct: For the partial purification of 17β-HSD1, the cytosolic fraction was precipitated with ammonium sulfate; from tissue; host or cells: human placenta, cytosolic fraction, ammonium sulfate precipitate
T6 sequence (P14061 1-328): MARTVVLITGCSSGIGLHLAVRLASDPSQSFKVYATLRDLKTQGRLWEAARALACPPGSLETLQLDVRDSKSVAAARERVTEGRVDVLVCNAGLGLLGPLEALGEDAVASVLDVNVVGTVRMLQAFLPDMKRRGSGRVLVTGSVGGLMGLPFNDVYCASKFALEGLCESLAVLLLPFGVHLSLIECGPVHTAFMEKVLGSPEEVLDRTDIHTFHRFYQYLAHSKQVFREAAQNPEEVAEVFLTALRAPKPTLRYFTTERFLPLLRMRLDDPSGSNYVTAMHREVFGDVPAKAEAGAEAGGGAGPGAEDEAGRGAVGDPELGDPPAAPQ

[1] = human liver S9, 1 mg/mL; unit not given
in vitro = details: human, pooled human liver S9 fraction
[2] = read-out: % inhibition m17β-HSD1 @ 1 μM
[3] = read-out: % inhibition m17β-HSD2 @ 1 μM
[4] = read-out: % Inhibition r17β-HSD1
[5] = read-out: % Inhibition r17β-HSD2
[6] = read-out: Inhibition @ 1 μM m17β-HSD1
[7] = read-out: Inhibition @ 1 μM m17β-HSD2
[8] = human placental cytosolic enzyme, E1 500 nM, NADH, Tables 1, 4-11, read-out: IC50 [nM] h17β-HSD1

Compound | inhibition at 1 µM (mouse 17β-HSD1; [2]) [%] | inhibition at […] (rat 17β-HSD1; [4]) [%] | inhibition at […] (rat 17β-HSD2; [5]) [%] | inhibition at 1 µM (mouse 17β-HSD1; [6]) [%] | inhibition at 1 µM (mouse 17β-HSD2; [7]) [%] | IC50 (human 17β-HSD2) [nM] | further results
O=C(c1ccc(-c2ccc(F)cc2F)s1)c1cccc(O)c1F [C, reference compound] | 18 | 35 | 20 | – | – | – | inhibition at 0.1 µM (human 17β-HSD2; read-out: % inhibition h17β-HSD2 @ 100 nM): 87%; inhibition at 1 µM (mouse 17β-HSD2; [3]): 75%; inhibition at 0.1 µM (human 17β-HSD1): 92%
O=C(c1ccc(Br)s1)c1c(F)ccc(O)c1F [Compound 1e, (5-Bromo-thiophen-2-yl)-(2,6-difluoro-3-hydroxy-phenyl)-methanone] | 5 | 5 | 60 | – | – | – | inhibition at 0.1 µM (human 17β-HSD2; read-out: IC50 [nM] or % inhibition h17β-HSD1 (second column so headed, Table 9): % @ 100 nM): 71%; inhibition at 1 µM (mouse 17β-HSD2; [3]): 80%; inhibition at 0.1 µM (human 17β-HSD1): 85%
O=C(c1ccc(-c2ccc(F)cc2F)s1)c1c(F)ccc(O)c1F [Compound 10, (2,6-Difluoro-3-hydroxy-phenyl)-[5-(2,4-difluoro-phenyl)-thiophen-2-yl]-methan-one] | – | 63 | 66 | 41 | 67 | – | inhibition at 1 µM (mouse 17β-HSD1; Tables 4 and 6, no % sign and concentration not given, Table 1 lists these compounds as inhibition @ 1 μM, read-out: IC50 [nM] or % inhibition m17β-HSD1 (bare number, kind not marked)): 41%; IC50 (human 17β-HSD1; [8]): 3.5 nM
COc1ccc(-c2ccc(C(=O)c3c(F)ccc(O)c3F)s2)cc1S(=O)(=O)N1CCOCC1 [Compound 19, (2,6-Difluoro-3-hydroxy-phenyl)-{5-[4-methoxy-3-(morpholine-4-sulfonyl)-phen-yl]-thiophen-2-yl}-methanone] | – | 26 | – | 58 | 44 | – | inhibition at 1 µM (human 17β-HSD2): 85%; % Inhibition r17β-HSD2 (rat 17β-HSD2): n.i.^c; inhibition at 1 µM (human 17β-HSD1): 79%
O=C(c1ccc(-c2ccc(O)c(Cl)c2)s1)c1c(F)ccc(O)c1F [Compound 20, [5-(3-Chloro-4-hydroxy-phenyl)-thiophen-2-yl]-(2,6-difluoro-3-hydroxy-phenyl)-methanone] | 50 | – | – | 50 | 82 | 20 | inhibition at 1 µM (mouse 17β-HSD2; [3]): 95%; inhibition at 0.5 µM (rat 17β-HSD1; Cmpd conc. 500 nM, read-out: % Inhibition r17β-HSD1): 48%; inhibition at 0.5 µM (rat 17β-HSD2; [5]): 98%; IC50 (human 17β-HSD1; [8]): 0.5 nM
O=C(c1ccc(-c2cc(Cl)c(O)c(Cl)c2)s1)c1c(F)ccc(O)c1F [Compound 23, [5-(3,5-Dichloro-4-hydroxy-phenyl)-thiophen-2-yl]-(2,6-difluoro-3-hydroxy-phen-yl)-methanone] | – | – | – | 23 | – | 39 | IC50 (mouse 17β-HSD2): 209 nM; inhibition at 5 µM (rat 17β-HSD1; [4]): 59%; CLint [1]: 5.4; half-life at 1 µM (in vitro): 2.16 h; IC50 (human 17β-HSD1; read-out: IC50 [nM] h17β-HSD1): 2.4 nM
CC(=O)N1CCN(Cc2cc(-c3ccc(C(=O)c4c(F)ccc(O)c4F)s3)cc(Cl)c2O)CC1 [Compound 29, 1-(4-{3-Chloro-5-[5-(2,6-difluoro-3-hydroxy-benzoyl)-thiophen-2-yl]-2-hydroxy-benzyl}-piperazin-1-yl)-ethanone] | – | – | – | 16 | 40 | 11 | % Inhibition r17β-HSD1 (rat 17β-HSD1): n.i.^c; % Inhibition r17β-HSD2 (rat 17β-HSD2): n.i.^c; IC50 (human 17β-HSD1; read-out: IC50 [nM] h17β-HSD1): 2.1 nM
O=C(c1ccc(-c2cc(Cl)c(O)c(Cn3ccnn3)c2)s1)c1c(F)ccc(O)c1F [Compound 32, [5-(3-Chloro-4-hydroxy-5-[1,2,3]triazol-1-ylmethyl-phenyl)-thiophen-2-yl]-(2,6-difluoro-3-hydroxy-phenyl)-methanone] | – | – | 66 | – | – | – | inhibition at 1 µM (human 17β-HSD2): 30%; Inhibition @ 1 μM m17β-HSD1 (mouse 17β-HSD1; compound 1 μM, Table 1, bare numbers): n.i.^c; % Inhibition r17β-HSD1 (rat 17β-HSD1): n.i.^c; inhibition at 1 µM (human 17β-HSD1): 37%
O=C(c1ccc(-c2cccc(NS(=O)(=O)c3ccc(Br)cc3OC(F)(F)F)c2)s1)c1cc(F)c(F)c(O)c1F [Compound 36, 4-Bromo-N-{3-[5-(2,4,5-trifluoro-3-hydroxybenzoyl)thiophen-2-yl]phenyl}-2-trifluoromethoxybenzenesulfonamide] | 68 | 50 | 100 | 68 | – | – | IC50 (human 17β-HSD1): 2.4 nM
O=C(c1ccc(-c2cccc(NS(=O)(=O)c3ccccc3OC(F)(F)F)c2)s1)c1cc(F)c(F)c(O)c1F [Compound 37, N-{3-[5-(2,4,5-Trifluoro-3-hydroxybenzoyl)thiophen-2-yl]phenyl}-2-trifluoromethoxybenzenesulfonamide] | 55 | 29 | 93 | 55 | – | – | IC50 (mouse 17β-HSD2): 79 nM and 22 nM; IC50 (human 17β-HSD1; [8]): 5.8 nM
O=C(c1ccc(-c2cccc(NS(=O)(=O)c3ccccc3C(F)(F)F)c2)s1)c1cc(F)c(F)c(O)c1F [Compound 38, N-{3-[5-(2,4,5-Trifluoro-3-hydroxybenzoyl)thiophen-2-yl]phenyl}-2-trifluoromethylbenzenesulfonamide] | 81 | 41 | 96 | 81 | – | – | IC50 (human 17β-HSD1): 4.8 nM
Cc1cc(-c2ccc(C(=O)c3cccc(O)c3)s2)ccc1O [Compound F1, reference compound] | – | – | – | 18 | 22 | 384 | inhibition at 5 µM (rat 17β-HSD1; [4]): 48%; CLint [1]: 193.8; half-life at 1 µM (in vitro): 0.06 h; IC50 (human 17β-HSD1; read-out: IC50 [nM] h17β-HSD1): 8 nM
